The subject of experiment [1] is bronchial ring. In words: Acute administration in the vessel containing the bronchial ring, contractile response to methacholine. Details: species or system mouse. Particulars: p=ns vs internal control without BI0101.
The subject of experiment [2] is mouse model of severe allergic asthma. In words: Bronchoalveolar fluid cellularity. It counts as in vivo. How it is done: Seven-week old mice were sensitized by cutaneous route to house dust mite (HDM) extracts on DO, 7, 14 and 21. After this skin sensitization phase to the allergen, the mice receive the allergen by the nasal route (challenge phase) on D27, 28, 29, 34, 35 and 36 to induce bronchial exacerbation. This severe allergic asthma model has been characterized as mimicking human pathology ([…] et al. Thorax 2021). BIG101 (batch RL11T1204A0) was administered to the mice in drinking water 7 days a week, at a dose of 50 mg/kg/day. The drinking water containing BI0101 was replaced twice weekly until the animals were sacrificed. On […], sterile PBS (between 200 μL and 1 mL) was administered by the intratracheal route to the mice using a catheter. The bronchoalveolar fluid (BALF) cells and supernatant are retrieved and separated by centrifugation. The total number of cells was counted on Kova slides by optical microscopy. The cellularity of each sample was evaluated by calculating the ratio of the total number of cells counted, divided by the volume of bronchoalveolar fluid. The cellularity represents the infiltrate of immune cells (macrophages, lymphocytes, eosinophils and neutrophils).

The subject of another experiment is 5-HT2B. In words: Real-time PCR gene expression in bronchi after chronic treatment. Particulars: healthy or asthmatic mice, chronic treatment 50 mg/kg/day. It counts as in vivo, mouse. How it is done: (§1) Seven-week old mice were sensitized by cutaneous route to house dust mite (HDM) extracts on DO, 7, 14 and 21. After this skin sensitization phase to the allergen, the mice receive the allergen by the nasal route (challenge phase) on D27, 28, 29, 34, 35 and 36 to induce bronchial exacerbation. This severe allergic asthma model has been characterized as mimicking human pathology ([…] et al. Thorax 2021). BIG101 (batch RL11T1204A0) was administered to the mice in drinking water 7 days a week, at a dose of 50 mg/kg/day. The drinking water containing BI0101 was replaced twice weekly until the animals were sacrificed. On […], the bronchi of healthy non-asthmatic mice (control; n=10), non-asthmatic control mice treated with BI0101 (controls+BIO101; n=10), asthmatic mice (Asthma; n=10) and asthmatic mice treated with BI0101 (Asthma+BIO101; n=10) were collected. After RNA extraction from these tissues (Trizol©, ThermoFisher cat. 15596018), an analysis of serotonin receptor (5-HT1A, 5-HT1B, 5-HT2A, 5-HT2B and 5-HT7) and serotonin transporter (5HTT) expression was evaluated with real-time PCR (TaqManTM, Universal PCR MasterMix, ThermoFisher cat. 4304437). The list of ThermoFisher Scientific commercial test references used for real-time PCR to obtain the results for each of the genes is given in Table 1 below: […]

A further experiment relates to 5-HT1B. Described as above. It counts as in vivo, mouse. Particulars: healthy or asthmatic mice, chronic treatment 50 mg/kg/day. The procedure:
as §1

The next experiment concerns 5-HT2A. The experiment is described as above. It counts as in vivo, mouse. Particulars: healthy or asthmatic mice, chronic treatment 50 mg/kg/day. How it is done: as §1
The test system of a further experiment is 5-HT1A receptor. The description is as above. It counts as in vivo, mouse. The note with it: chronic treatment 50 mg/kg/day, D38, p<0.05. How it is done: as §1
A further experiment relates to 5-HT7. The description is as above. It counts as in vivo, mouse. Particulars: healthy or asthmatic mice, chronic treatment 50 mg/kg/day. The procedure: as §1
For the next experiment, the system named is 5-HTT. The description is as above. It counts as in vivo, mouse. The note with it: healthy or asthmatic mice, chronic treatment 50 mg/kg/day. How it is done: Seven-week old mice were sensitized by cutaneous route to house dust mite (HDM) extracts on DO, 7, 14 and 21. After this skin sensitization phase to the allergen, the mice receive the allergen by the nasal route (challenge phase) on D27, 28, 29, 34, 35 and 36 to induce bronchial exacerbation. This severe allergic asthma model has been characterized as mimicking human pathology ([…] et al. Thorax 2021). BIG101 (batch RL11T1204A0) was administered to the mice in drinking water 7 days a week, at a dose of 50 mg/kg/day. The drinking water containing BI0101 was replaced twice weekly until the animals were sacrificed.

For experiment [3], the system named is murine bronchial ring. In words: Ex vivo bronchial ring contraction (Mulvany myograph) after chronic treatment, methacholine-induced bronchoconstriction. It counts as in vivo, mouse. Particulars: asthmatic mice. How it is done:
(§2) Seven-week old mice were sensitized by cutaneous route to house dust mite (HDM) extracts on DO, 7, 14 and 21. After this skin sensitization phase to the allergen, the mice receive the allergen by the nasal route (challenge phase) on D27, 28, 29, 34, 35 and 36 to induce bronchial exacerbation. This severe allergic asthma model has been characterized as mimicking human pathology (Dilasser et al. Thorax 2021).
(§3) BIG101 (batch RL11T1204A0) was administered to the mice in drinking water 7 days a week, at a dose of 50 mg/kg/day. The drinking water containing BI0101 was replaced twice weekly until the animals were sacrificed.
(§4) The evaluation of the effect of chronic administration of BI0101 treatment on ex vivo murine bronchial ring contraction was carried out in an isolated organ chamber (isometric tension measurement, Mulvany myograph, DMT, Hinnerup, Denmark) (André-Grégoire et al., 2018).
(§5) The bronchi are collected, cleaned, cut into rings and set up in the Mulvany myograph. The rings are pre-stretched and then stimulated with 60 mM KCl until the contractile response amplitude has stabilized (2 or 3 stimulations) before the start of each experimental protocol. […]

Experiment [4] deals with mouse model of severe allergic asthma. In words: Histological analysis of lung sections stained with hematoxylin and eosin. It counts as in vivo. Particulars: chronic treatment 50 mg/kg/day. The procedure: as §2, §3
Experiment [5] deals with murine bronchial ring. In words: Ex vivo bronchial ring contraction (Mulvany myograph) after chronic treatment, serotonin-induced bronchoconstriction. It counts as in vivo, mouse. The note with it: asthmatic mice. The procedure:
as §2, §3, §4, §5

Experiment [6] relates to mouse model of severe allergic asthma. In words: Respiratory function by plethysmography (Penh) in response to methacholine. It counts as in vivo. How it is done: as §2, §3
In order to study whether the reduction of inflammation in BALF could induce functional improvement after severe asthma induction, respiratory function was evaluated by plethysmography. This technique makes it possible to carry out a longitudinal study of respiratory capacity and also expiratory pause time (Penh) non-invasively. Breathing-induced flow and pressure changes are measured before and after exposure to nebulization with increasing doses of NaCl followed by methacholine. […]
The pressure variations measured relative to a reference chamber make it possible to define various respiratory parameters such as inspiratory and expiratory pressure peaks and times, and also a unitless parameter referred to as Penh (enhanced Pause) which makes it possible to evaluate bronchoconstriction. Indeed, the Penh value, calculated from the pressure signal in the chamber (Pb), is an important index to obtain, because changes in the Penh value evolve in parallel with those of respiratory resistance and therefore it represents a predictive parameter of changes in resistive properties of the respiratory system (Hamelmann et al., 1997; Bergren, 2001; Onclinx et al., 2003). The following values were calculated from the filtered Pb: the maximum change in Pb during expiration (PEP for “Peak Expiratory Pressure”), the maximum change in Pb during inspiration (PIP for “Peak Inspiratory Pressure”), and the time interval (TR). The Penh value was then calculated as follows: […]

Experiment [7] concerns bronchial ring. In words: Acute administration in the vessel containing the bronchial ring, contractile response to serotonin. Details: species or system mouse. The note with it: p=ns vs internal control without BI0101.
Setting [8] is: chronic treatment 50 mg/kg/day in drinking water, D38, Asthma vs Asthma+BIO101 p<0.0001.

With `CC(C)(O)CC[C@@H](O)[C@](C)(O)[C@H]1CC[C@@]2(O)C3=CC(=O)[C@@H]4C[C@@H](O)[C@@H](O)C[C@]4(C)[C@H]3CC[C@]12C` [BI0101, 20-hydroxyecdysone], the “contractile response to methacholine” value in the experiment on bronchial ring [1] is on record as 0.41±0.25 mN. In addition, the “change of BALF cellularity (inflammation present in BALFs)” value in experiment [2] (asthmatic mice treated with BI0101 vs asthmatic mice, D38, p=ns) is recorded as −39.8%. In addition, the “BALF cellularity (total number of cells divided by volume of bronchoalveolar fluid)” value in [2] (control mice treated with BI0101, D38, p=ns vs untreated control) was 260±64. Besides, in the experiment on 5-HT2B, the “5-HT2B gene expression in bronchi” value is given as “does not induce any modification”. Further, the “5-HT1B gene expression in bronchi” value with 5-HT1B was “does not induce any modification”. In addition, the “5-HT2A gene expression in bronchi” value in the experiment on 5-HT2A is recorded as “does not induce any modification”. In addition, in the experiment with 5-HT1A receptor (asthmatic mice (asthma+BIO101)), the “5-HT1A receptor gene expression decrease in bronchi” value was −69±3%. In the experiment with 5-HT1A receptor (healthy mice (control+BIO101)), the “5-HT1A receptor gene expression decrease in bronchi” value is reported as −49%±12%. Also, in the experiment on 5-HT7, the “5-HT7 gene expression in bronchi” value was “does not induce any modification”. The “5-HTT (serotonin transporter) gene expression in bronchi” value in the experiment with 5-HTT is listed as “does not induce any modification”. In addition, the methacholine-induced bronchoconstriction result in the experiment on murine bronchial ring [3] (setting [8]) is listed as “significantly decreases”. Further, in the experiment on murine bronchial ring [3] (chronic treatment 50 mg/kg/day, Asthma+BIO101 vs Control p=0.0025), the “prevention of exacerbated bronchial airway reactivity (methacholine)” value is “does not prevent”. Besides, in experiment [4] (asthmatic mice), the “increase in bronchial muscle mass and epithelial barrier dysfunction associated with severe asthma” value is listed as “appear to be less substantial”; the “peribronchial and perivascular inflammation” value was “reduces”. Further, the “effect on lung histology” value in [4] (healthy mice (control)) is on record as “has no effect”. Besides, the serotonin-induced bronchoconstriction result with murine bronchial ring [5] (setting [8]) is given as “significantly reduces”. Also, the “prevention of exacerbated bronchial airway reactivity (serotonin)” value in the experiment with murine bronchial ring [5] (chronic treatment 50 mg/kg/day, Asthma+BIO101 vs Control p=0.9997) is “completely prevents”. In experiment [6] (asthmatic mice treated with BI0101, 50 mg/kg/day, 40 mg/ml of methacholine), this compound came in with a Penh value of 9.81±1.1. In [6] (asthmatic mice treated with BI0101 vs asthmatic mice, 40 mg/ml of methacholine, p<0.05), the “reduction of the Penh value” is given as 18.1%. The “effect on respiratory function (Penh, methacholine aerosol)” value in experiment [6] (healthy control mice treated with BI0101) is listed as “does not appear to have an effect”. The “contractile response to serotonin” value in the experiment on bronchial ring [7] amounted to 0.29±0.14 mN.
